From patent publication US10738019B2, “Compound including basic dye and amino acid, hair dyeing dye, and hair dyeing composition” (HODOGAYA CHEMICAL CO., LTD., priority 2018, dated 2020)

Experiment: Water solubility, foaming property and hair feel during hair dyeing
Assay type: physicochemical
Conditions: for hair dyeing (dyeing gel, pH 6 aqueous solution)
Protocol: Subsequently, Human White hair 100% BM-W manufactured by Beaulax Co., Ltd. was used as hair to be dyed. Two parts by mass of the dyeing gel was taken with respect to 1 part by mass of the hair and applied to the hair uniformly using a comb, and the hair was dyed at 40° C. for 10 minutes and washed with water.

**Q.** With `CC1=CC(=C(c2ccc(N)c(C)c2)c2ccc(N)c(C)c2)C=CC1=N` [Compound (A-3)] as the compound, how does the water solubility read?
**A.** sufficient water solubility for hair dyeing

**Q.** With `C[N+](C)(C)c1ccc2ccc(O)c(N=Nc3ccc(N)cc3)c2c1` [Compound (A-5)] as the compound, how does the water solubility read?
**A.** sufficient water solubility for hair dyeing
